Paper PMC9781217, “Discovery of Novel and Selective G-Protein Coupled Receptor 120 (GPR120) Agonists for the Treatment of Type 2 Diabetes Mellitus” (Molecules, 2022)
Like-named read-outs stand apart in the source and are kept apart here.

What was measured:
[1] = Pharmacokinetic analysis in C57BL/6 mice; format: in vivo
Experimental: The pharmacokinetic profiles of 10k and 14d were obtained from C57BL/6 mice. […] The pharmacokinetic profiles traces were shown in the Supplementary Materials (Figure S1, see Supporting Materials).
Plasma was collected and precipitated using two volumes of acetonitrile containing an internal standard. This was followed by centrifugation at 15.680 g for 10 min after vortexing for 5 min. The supernatant was diluted with acetonitrile and 10 µL of the supernatant was analyzed by Waters LC-PDA-MS/MS to determine plasma drug levels. Pharmacokinetic parameters were determined using mean data from four mice at each time point. Statistical analysis of the data was performed using the DAS 2.1.1 statistical software program (BioVoice, Shanghai, China).

[2] = target: T1, human GPR120 (hGPR120) (Homo sapiens, UniProt Q5NUL3); test: Calcium flux assay in hGPR120-transfected CHO cells
T1 sequence (Q5NUL3 1-361): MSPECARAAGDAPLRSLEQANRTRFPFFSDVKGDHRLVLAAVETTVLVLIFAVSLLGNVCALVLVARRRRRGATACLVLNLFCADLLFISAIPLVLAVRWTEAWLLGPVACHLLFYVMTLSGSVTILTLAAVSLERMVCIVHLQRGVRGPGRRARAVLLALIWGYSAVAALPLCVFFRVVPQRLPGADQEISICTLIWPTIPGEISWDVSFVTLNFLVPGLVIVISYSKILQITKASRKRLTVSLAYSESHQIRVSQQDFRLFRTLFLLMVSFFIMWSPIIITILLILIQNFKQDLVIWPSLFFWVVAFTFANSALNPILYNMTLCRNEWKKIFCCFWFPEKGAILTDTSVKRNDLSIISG
Experimental: (§1) A calcium flux assay was performed to assess the agonist activity of the test compounds against the hGPR120 (mGPR120) and hGPR40 (mGPR40) receptors. […] The medium in the wells was gently discarded, and the wells were washed with Hank’s balanced salt solution (HBSS; 100 μL per well). […] The cells were then washed thrice in HBSS and allowed to equilibrate for 10 min before conducting the assay. Test compounds dissolved in dimethyl sulfoxide were diluted in HBSS at various concentrations and added to Fluo-4 AM-containing cells, and intracellular Ca^2+ concentrations were measured using FlexStation3 Molecular Devices. The EC50 value of each compound was calculated using GraphPad Prism software (version 5.0; GraphPad Software, San Diego, CA, USA).

[3] = target: T2, mouse GPR120 (mGPR120) (Mus musculus, UniProt Q7TMA4); test: Calcium flux assay in CHO cells expressing mouse GPR120
T2 sequence (Q7TMA4 1-361): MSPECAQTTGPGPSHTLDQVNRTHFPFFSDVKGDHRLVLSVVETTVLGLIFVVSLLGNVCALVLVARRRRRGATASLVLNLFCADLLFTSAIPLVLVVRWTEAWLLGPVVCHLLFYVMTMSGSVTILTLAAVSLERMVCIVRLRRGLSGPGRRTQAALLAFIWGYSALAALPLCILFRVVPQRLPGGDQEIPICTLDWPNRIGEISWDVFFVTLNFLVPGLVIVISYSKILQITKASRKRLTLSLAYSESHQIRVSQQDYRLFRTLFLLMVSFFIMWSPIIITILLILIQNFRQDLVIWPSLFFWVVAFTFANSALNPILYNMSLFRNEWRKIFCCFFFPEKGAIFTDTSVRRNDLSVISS
Experimental: as §1

[4] = system: C57BL/6 mice; test: Oral glucose tolerance test (OGTT) in normal C57BL/6 mice; format: in vivo
Experimental: GPR120 agonists have been reported to increase GLP-1 secretion and improve glucose tolerance in vivo [28]. […] Compound 14d was orally administered at doses of 3, 10, 30, and 100 mg/kg, 30 min before the oral glucose challenge at a dose volume of 3 g/kg. Glucose levels were measured from 30 min before glucose challenge to 120 min after the glucose challenge.
Normal male C57BL/6 mice aged 9 weeks were used for the OGTT for compound 14d. C57BL/6 mice were weighed and randomly divided into six groups (eight mice per group) after 12 h of fasting. The test compounds were dissolved in 0.5% MC and vortexed before the study initiation. […] The exact dose volume was calculated separately for each animal. Blood samples were collected via the tail tip 30 min before the compound dose, at t = 0 (immediately before glucose loading), and 15, 30, 60, and 120 min after glucose loading. Blood glucose levels were measured using blood glucose test strips (Sannuo GA-3 type; Changsha, China). Glucose values were entered into an Excel sheet and plotted using GraphPad Prism software.

[5] = target: mouse GPR40 (mGPR40) (Mus musculus, UniProt Q76JU9); test: Calcium flux assay in CHO cells expressing mouse GPR40
mouse GPR40 (mGPR40), sequence (Q76JU9 whole entry): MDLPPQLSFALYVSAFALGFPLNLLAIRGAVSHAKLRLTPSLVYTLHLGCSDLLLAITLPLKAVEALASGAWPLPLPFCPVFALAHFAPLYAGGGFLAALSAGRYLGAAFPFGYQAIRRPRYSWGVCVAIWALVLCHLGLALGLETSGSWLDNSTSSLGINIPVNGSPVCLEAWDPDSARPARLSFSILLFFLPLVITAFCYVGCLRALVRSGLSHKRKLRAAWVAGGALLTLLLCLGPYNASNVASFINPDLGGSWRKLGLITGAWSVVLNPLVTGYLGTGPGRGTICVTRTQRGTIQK
Experimental: as §1

[6] = system: DIO mice; test: Anti-hyperglycemic effects (OGTT, insulin) in DIO mice; format: in vivo, C57BL/6 mice; conditions: 20 mg/kg oral
Experimental: Blood samples were collected with retro-orbital sinus puncture, and glucose levels were measured in accordance with the OGTT in normal mice. Plasma insulin levels were measured using a mouse insulin RIA kit (Beijing North Institute of Biological Technology, Beijing, China).

[7] = hGPR120, concentration response curve
[8] = mGPR120, concentration response curve

metabolic stability in vivo ([1]; C57BL/6 mice, pharmacokinetics, in words): excellent metabolic stability | Tmax ([1]; male, mouse, plasma, po, C57BL/6 mice, 10 mg/kg gavage): 0.5 h | Cmax ([1]; male, mouse, plasma, po, C57BL/6 mice, 10 mg/kg gavage, 0.5% MC, mean ± SD of four mice): 2650 ± 288 ng/mL | AUC ([1]; male, mouse, plasma, po, C57BL/6 mice, 10 mg/kg gavage, mean ± SD of four mice): 5900 ± 584 ng·h/mL | half-life ([1]; male, mouse, plasma, po, C57BL/6 mice, 10 mg/kg gavage, mean ± SD of four mice, read-out: t1/2 (converted)): 1.6 ± 0.4 h | clearance ([1]; rodents, in words): low clearance | half-life ([1]; rodents, in words): long half-life | EC50 [2]: 37.5 nM | Hill slope [2, 7]: 0.9540 | Hill slope (95%CI) [2, 7]: 0.8259-1.0820 | Agonist type from dose-dependent curves ([2]; hGPR120 and mGPR120): full agonist | EC50 [3]: 83.2 nM | Hill slope [3, 8]: 0.7745 | Hill slope (95%CI) [3, 8]: 0.5397-1.0090 | Selectivity ([3]; mGPR120 over mGPR40): 152.6 | EC50 [5]: 12700 nM | melting point: 89 to 91 °C
Compound: O=C(O)CCCOc1ccc(COc2cc(F)ccc2-c2ccc(F)cc2)cc1F [Compound 14d, 4-(4-(((4,4′-difluoro-[1,1′-biphenyl]-2-yl)oxy)methyl)-2-fluorophenoxy)butanoic acid]
blood glucose in OGTT ([4]; 30 mg/kg oral, glucose 3 g/kg, superior to TUG-891): significant reduction in blood glucose | dose dependence of glucose lowering and glucose AUC ([4]; 3, 10, 30, 100 mg/kg oral): dose-dependent | reduction of plasma glucose AUC ([4]; OGTT, 30 mg/kg oral, after 120 min, compared with glucose alone, p < 0.001): 25% | hypoglycemia during OGTT ([4]; normal C57BL/6 mice, during the experiment): no hypoglycemia was observed | hypoglycemic side effects ([4]; normal mice, even at a dose of 100 mg/kg): no hypoglycemic side effects were detected | insulin levels 30 min after the glucose challenge ([6]; compared to vehicle-treated mice): significantly increased insulin levels | glucose AUC0–120 min ([6]; glucose 2 g/kg): significantly lower than that of vehicle-treated mice
